Assay [1] deals with reinforcing effects of methamphetamine. As to conditions: rat self-administration model; Munzar et al., 2004; cited from earlier work.
In assay [2] the test system is reinforcement produced by cocaine. Kind of assay: Reinforcement phase: cocaine self-administration dose/response. The assay is classed as in vivo, rat. The settings on record: rats.
For assay [3], the system named is relapse into cocaine seeking. In words: Relapse phase: rehabilitation test, relapse induced by a single dose of cocaine. The class given is in vivo, rat. The settings on record: rats. The text has this: III. Relapse Phase: The relapse phase is studied by using a rehabilitation test. In this phase, the desire of the rats for the drug is again induced by the administration of a single dose of drug. At this instant, the rat again feels the desire to obtain the drug, and so it again begins to press on the lever to obtain the drug, but the drug is not available to the animal.
The behavior of the rats was also studied during the relapse phase, after the animals had gone through the extinction phase. In the extinction phase, the animals received no reward (dose of cocaine) when they pressed the lever. After a minimum of six extinction sessions, lasting 2 hours each session, carried out on consecutive days, the lever-pressing behavior of the rats diminished at least 20 times in comparison to the start of the extinction sessions.
When the number of times that the rats pressed the lever decreased, the animals were subjected to 4 hour rehabilitation sessions (i.e., relapse sessions). These rehabilitation sessions consisted initially of extinction sessions of 3 hours, followed by the automatic release, by an injection, of a saline solution or different doses of cocaine. During the fourth hour, the behavior of the animals was studied in regard to the number of times that they pressed the lever after the administration of the different doses of cocaine (0 mg/kg, 0.5 mg/kg and 2 mg/kg). The number of times that the lever was pressed increased in proportion to the dose of cocaine administered (cocaine at 0.5 mg/kg or 2 mg/kg administered intravenously, or saline in controls) (FIG. 8). However, this increase in the number of times that the animals pressed the lever was not rewarded with the administration of more cocaine. The number of times that the rats pressed the lever was indicative of the rat's need to find the drug. Even so, the pressing of the lever was not rewarded with more cocaine, which differentiates this stage from that corresponding to self-administration. […]

Assay [4] deals with cocaine self-administration. Kind of assay: Same protocol with lever pressing rewarded with drug during the second hour (resumption of self-administration). The class given is in vivo, rat. On the procedure: In order to differentiate the drug seeking from the reward phenomenon, the same protocol as described above was used, with the proviso that the pressing of the lever was rewarded with drug during the second hour. In the control experiments, when the rats were treated with saline solution, a relatively stable pressing of the lever over the course of time was observed (FIG. 3).
These same rats, days afterwards, were subjected in random order to treatment with saline solution or imetit in doses of 10 mg/kg. After these treatments, the rats recovered stability by means of three sessions of self-administration of drug. […] This decrease was significant for the first 40 minutes of the self-administration period, as compared to the control rats that were pretreated with a saline solution. Thus, over the course of time, the desire for the drug reappeared.

The test system of assay [5] is cocaine craving. In words: Extinction phase: cocaine craving (lever pressing with drug no longer available). The class given is in vivo, rat. The text has this:
II. Extinction Phase: In this phase, the drug ceases to be available to the rats. During the extinction session, the animal learns, suddenly, that the drug can no longer be obtained by pressing the lever, which directs the rat toward an initial impulse of drug seeking. During the extinction session, one estimates the degree of the irrepressible desire of the rat for the drug (craving). After repeated extinction sessions, animals learn to reduce lever pressing and are ready for relapse testing.
Training was conducted in Skinner cages. Rats were trained to tap a lever to obtain saccharose. […] Once the training to obtain saccharose was complete, the rats had access to food ad libitum during the rest of the procedure. An intravenous catheter was subsequently implanted in the jugular vein. The catheter passed underneath the skin to reach the shoulder of the animal, where it was secured with a surgical gauze.
After 3-4 days of recovery, the animals were subjected, in the Skinner cages, to daily sessions of intravenous self-administration of 0.5 mg/kg doses of cocaine each time that they pressed an active lever. […] When this second lever was pressed by the animal, no drug was administered. The self-administration sessions lasted for 2 hours a day, 5 days a week, for at least six weeks.
The third self-administration protocol required the animals to press the lever five times to obtain the cocaine reinforcement.
Rats that succeeded in learning to self-administer the drug according to all three protocols described above were selected to test out the efficiency of the treatment with H3 histaminergic agonists in the extinction and relapse phases.
Drug craving, in this particular case cocaine craving, associated with the unexpected commencement of the extinction phase was studied once the animals had been self-administering the drug daily for at least six weeks.
The experiments began with the self-administration of cocaine for one hour. After this initial self-administration, the rats were divided into two groups. […]

Structures are written as SMILES. “Also recorded” adds a separate entry of the source.

The values below come from patent US20110130425A1, “Use of H3 Histaminergic Agonists for the Treatment of Addiction to Drugs of Abuse” (priority 2009, published 2011).

As for `S=C(NC1CCCCC1)N1CCC(c2cnc[nH]2)CC1` [thioperamide], the “reinforcing effects of methamphetamine” value in assay [1] is reported as “potentiate the reinforcing effects”. In addition, the “reinforcement produced by cocaine (self-injections in 2 hours)” value in assay [2] (thioperamide 3 mg/kg s.c. one hour before, cocaine 0-1.0 mg/kg per injection) is recorded as “no significant increase”. In addition, the “lever pressing after relapse induced by a reminder dose of cocaine” value in assay [3] (thioperamide 3 mg/kg s.c. or 6 mg/kg, one hour before, cocaine 0.5 or 2 mg/kg) was “did not potentiate the rehabilitation; also recorded: does not produce a significant decline”.

In the case of `N=C(N)SCCc1cnc[nH]1` [imetit], the “latency (time until first lever press) on resumption of self-administration” value in assay [4] (imetit 10 mg/kg i.v. pretreatment, vs control, rats) is “significantly increased”. In addition, in assay [4] (imetit 10 mg/kg pretreatment, vs saline), the “decrease in number of times the rats tapped the lever during the start of the self-administration phase” value was “approximately 50%”. For the same compound, the “period of the self-administration phase over which the decrease in lever tapping was significant” value in assay [4] (imetit 10 mg/kg pretreatment, vs saline, rats) was 40 min. In assay [5] (imetit 3 mg/kg i.v. single dose, vs control rats), the “tapping of the lever in the first 20 minutes of extinction” value was “did not cause a significant reduction”. Besides, the “latency (time until the rats pressed the lever for the first time) at start of extinction” value in assay [5] (imetit 10 mg/kg i.v. single dose, vs control) is listed as “significantly increased; also recorded: increase in latency”. Further, the “impulsiveness in tapping the lever to obtain reward in the first 20 minutes of extinction” value in assay [5] (imetit 10 mg/kg i.v. single dose, vs control rats) is listed as “significantly diminished”. Further, in assay [2] (imetit 3 mg/kg single dose one hour before reinforcement, even at 0.03 mg/kg cocaine), the “tendency to seek cocaine (self-injections in 2 hours)” value is recorded as “diminished the tendency to seek cocaine; also recorded: self-administer less cocaine”. Further, the “lever pressing after relapse induced by a single dose of cocaine” value in assay [3] (imetit 3 mg/kg one hour before, cocaine 0.5 mg/kg, vs saline) is listed as “caused a decrease in the pressing on the lever; also recorded: diminished significantly”.

As for `NC(=NCc1ccc(Cl)cc1)SCCCc1cnc[nH]1` [clobenpropit], the “reinforcing effects of methamphetamine” value in assay [1] was “potentiate the reinforcing effects”.
